The term EC50 denotes the concentration giving half of the maximal effect. In general, IC50 refers to the midpoint of a concentration-inhibition curve.

The test has as its system CEM cells HIV-1 protection, formazan growth assay. The experiment in a line: NCI AIDS Antiviral Assay. The note with it: for IC50: measured here: growth of uninfected CEM cells. The method in brief: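 Soluble formazan readout of cell growth; CEM cells ± HIV-1; 5 drug concs. ≥50% protection → retest; ≥50% again = moderately active; reproducible 100% = confirmed active.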

Where “and” joins values, the source holds several entries; their conditions need not be identical. Identical values can stand only once. Calls of active or inactive are those of the source.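 The calls were made as follows: active = compounds giving half or more protection of infected cells from virus-caused growth loss, again on retest; inactive = the rest.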

As for `COc1cc(C(C)O)c[n+](CCC2CNc3ccccc32)c1` (stereo unspecified), the EC50 is above 219 µM and the IC50 is 195 µM.

Take `CC1=CC(=O)Nc2cncnc2N1`: the EC50 was above 77.6 µM and the IC50 is above 77.6 µM.

Consider `CCCCN(CCCC)C(=S)SSC(=S)N(CCCC)CCCC`, for which the EC50 was above 200 µM and the IC50 was determined as 5.25 µM.

For the compound `COc1ccc(C2C(C#N)=C(S)N(C3OC(COC(C)=O)C(OC(C)=O)C(OC(C)=O)C3OC(C)=O)C(c3ccccc3)=C2C(C)=O)cc1` (stereo unspecified), the EC50 is above 200 µM and the IC50 stood at 25.1 µM.

With `CCOC(=O)N1C2C=C(C)C(ON2C(=O)c2ccccc2)C2C(C)C(=O)N21` (stereo unspecified), the EC50 is above 355 µM and the IC50 is above 355 µM.

As for `CC1CCP(=O)(c2ccccc2)C1` (stereo unspecified), the EC50 is above 1290 µM and the 50% inhibitory concentration (IC50) is above 1290 µM.

For `CC(=O)O[C@H]1CC[C@@]2(C)C(=CC[C@@H]3C2CC[C@]2(C)Nc4oncc4CC32)C1` (stereo partly specified), the outcome was inactive.

For `COc1ccc(C=NC23CC4CC(CC(C4)C2)C3)cc1`, the EC50 was above 95.5 µM and the IC50 is above 95.5 µM.

With `CC(C)N(C(=O)C12C3(C(=O)C(C)(C)C)C4C5(C#N)C3C1(C(=O)C(C)(C)C)C5C42C(=O)C(C)(C)C)C(C)C` (stereo unspecified), the EC50 is above 151 µM and the IC50 was above 151 µM.

In the case of `Cn1c(=O)c2/c(n(C)c1=O)=N\C=c1\c(=O)n(C)c(=O)n(C)\c1=N\C=2`, the EC50 is above 182 µM and the IC50 was above 182 µM.

For the compound `c1ccc2c(c1)SCCc1nncn1-2`, the EC50 is above 437 µM and the IC50 was above 437 µM.

Turning to `CC(C)=C1C(=O)N(c2ccccc2)N(c2ccccc2)C1=O`, the EC50 is above 200 µM and the IC50 came to 79.4 µM.

Take `Cc1ccc([N+](=O)[O-])c2c(NCC(O)CO)ccnc12` (stereo unspecified): the EC50 was above 33.9 µM and the IC50 turned out to be 26.3 µM.

`CCOC(=O)C(C)(C)Oc1ccc2c(-c3ccccc3)cc(=O)oc2c1`: the EC50 was above 20.4 µM and the IC50 is above 20.4 µM.

Turning to `COC1/C=C/OC2(C)Oc3c(C)c(O)c4c(O)c(c(/C=N/n5cnc6c(ncn6C6OC(CO)C(O)C6O)c5=O)c(O)c4c3C2=O)NC(=O)/C(C)=C\C=C\C(C)C(O)C(C)C(O)C(C)C(OC(C)=O)C1C` (stereo unspecified), the EC50 is above 200 µM and the IC50 was found to be 66.1 µM.

For `Nc1ccc([N+](=O)[O-])cc1CN1C(=O)c2ccccc2C1=O`, the EC50 is above 200 µM and the IC50 was above 200 µM.

As to `CCCCNC(=O)OCCN=c1c2ccccc2ccc2ccccc12`, the EC50 was above 200 µM and the IC50 is above 200 µM.

For `CCCC1(C)OC(=O)C(c2ccccc2)O1` (stereo unspecified), the EC50 was above 200 µM and the IC50 was above 200 µM.

For `COC1(c2ccccc2)OC(=O)c2ccccc21` (stereo unspecified), the EC50 is above 200 µM and the IC50 is 83.2 µM.

`O=C1CC23CC4CC(CC(C4)C2O1)C3` (stereo unspecified): the EC50 is above 200 µM and the IC50 was above 200 µM.

With `CCCC(C(=O)OCCN(CC)CC)(c1ccccc1)c1ccccc1`, the EC50 was above 200 µM; the concentration for half-maximal inhibition (IC50) is 102 µM and 37.2 µM.

For the compound `COC(=O)[C@H](Cc1ccccc1)NP(=O)(O)OCC1OC(n2cc(C)c(=O)[nH]c2=O)CC1N=[N+]=[N-]` (stereo partly specified), the EC50 was 0.0251 µM and the IC50 was 10 µM.

Turning to `NC(=S)NN/C=C(\C=Nc1ccccc1)[N+](=O)[O-]`, the EC50 was above 355 µM and the IC50 amounted to 178 µM.

As for `CN(C)C(=O)c1nnsc1NN=O`, the EC50 is above 200 µM and the IC50 is above 200 µM.

Consider `C/C=C/C#CC#CC(O)C(O)/C=C/CCCO` (stereo unspecified), for which the EC50 is above 77.6 µM and the IC50 was above 77.6 µM.

Consider `O=C(Nc1ccc([N+](=O)[O-])cc1C(=O)O)c1ccc([N+](=O)[O-])cc1`, for which the result was inactive.

Consider `CCCCCOCCCCCCCC(=O)O`, for which the EC50 is above 200 µM and the IC50 amounted to 89.1 µM.

As for `O=c1c2ccccc2[nH]c2c(Cl)cc(Cl)c(NC3CCCCC3)c12`, the EC50 was above 200 µM and the IC50 amounted to 28.2 µM.

`OCCN(CCO)CCn1cnc2c(NCc3ccccc3)ncnc21`: the EC50 was above 200 µM and the IC50 is above 200 µM.

Consider `Cc1ccc(NC(=O)CCc2cc(C(C)(C)C)nc(NC#N)n2)cc1C`, for which the result was inactive.

For `Cc1cc(-c2ccc(N=Nc3c(N)c(S(=O)(=O)O)cc4cc(S(=O)(=O)O)ccc34)c(C)c2)ccc1N=Nc1c(N)ccc2cc(S(=O)(=O)O)ccc12`, the result was active.

Consider `c1ccc(CSCSCc2ccccc2)cc1`, for which the result was inactive.

Turning to `Nc1nc2c(c(-c3cccc(Cl)c3)n1)COC/C2=C\c1cccc(Cl)c1`, the EC50 is above 200 µM and the half-inhibitory concentration (IC50) is above 200 µM.

Turning to `Oc1ccc(C23CC4CC(CC(C4)C2)C3)cc1`, the outcome was inactive.

Regarding `Cc1ccnc2sc3ccccc3c(=O)c12`, the EC50 was above 200 µM and the IC50 amounted to 37.2 µM.

For `COc1ccc(C2Oc3ccc(Cl)cc3C=C2[N+](=O)[O-])cc1` (stereo unspecified), the EC50 was above 200 µM and the IC50 amounted to 0.447 µM.

As for `CCn1c(=O)c2c3ccc(O)cc3oc2c2ccc(O)cc21`, the EC50 is above 200 µM and the half-inhibitory concentration (IC50) turned out to be 89.1 µM.

As for `COc1ccc(/C=C2\CN(C)CC3=C2OC(N)=C(C#N)C3c2ccc(OC)cc2)cc1` (stereo unspecified), the EC50 was above 200 µM and the IC50 was 19.1 µM.

As to `CCOP(=O)(OCC)/C(C#N)=C/c1ccc2c(c1)OCO2`, the EC50 was above 427 µM and the IC50 was above 427 µM.

For `COc1cc2c(cc1O)C(C)Cc1cc3c(cc1N(C)CC2)OCO3` (stereo unspecified), the EC50 was above 117 µM and the IC50 stood at 2.24 µM.

Turning to `O=C(O)CCCCCCCCCC(=O)O`, the EC50 is above 794 µM and the half-inhibitory concentration (IC50) was above 794 µM.

As for `C[C@@]1(Cc2ccccc2)C(=O)N2[C@@H](CO)C(c3ccccc3)O[C@]2(C)c2ccccc21` (stereo partly specified), the EC50 was above 33.1 µM and the IC50 is above 33.1 µM.

`Nc1nc(Cl)c2ncn(C3C=CC(O)CC3)c2n1` (stereo unspecified): the EC50 was above 933 µM and the IC50 was determined as 52.5 µM.

As to `O=C1N=C(SC2OC(CO)C(O)C(O)C2O)S/C1=C\c1ccccc1` (stereo unspecified), the outcome was inactive.

On to `COC1OC(CO)C(O)C1N` (stereo unspecified), for which the outcome was inactive.

Regarding `CCOC(=O)/C=C/CC(C)n1cc(C)c(=O)[nH]c1=O` (stereo unspecified), the outcome was inactive.

With `O=C1OC2C(O)COC2(O)C1(O)C(C[N+](=O)[O-])c1ccc(Cl)cc1` (stereo unspecified), the EC50 is above 200 µM and the IC50 was 17 µM.

Regarding `NC(=O)CCCCNC(=O)c1ccccc1SC(=O)CCCC[n+]1ccccc1`, the half-maximal effective concentration (EC50) was 1.26 µM and the IC50 worked out at 10.7 µM.

With `Nc1nc2c(c(=O)[nH]1)CNC2=O`, the EC50 is above 200 µM and the IC50 is above 200 µM.

With `Fc1ccc(N=C2C=CC(=Nc3ccc(F)cc3)c3ccccc32)cc1`, the outcome was inactive.

Turning to `CC1=N/C(=C\c2ccc([N+](=O)[O-])cc2)C(=O)O1`, the EC50 is above 155 µM and the half-maximal inhibitory concentration (IC50) was above 155 µM.

With `O=C1CCC[C@]2(C1)Cc1ccccc1N2`, the EC50 was above 468 µM and the IC50 turned out to be 288 µM.

In the case of `CC1OC(=O)C(O)=C1O` (stereo unspecified), the outcome was inactive.

Take `CCCc1cc(=O)oc2c3c(c4c(c12)OC(C)(C)[C@H](OC(=O)c1ccc(Br)cc1)[C@@H]4OC(=O)c1ccc(Br)cc1)O[C@@H](C)[C@H](C)[C@@H]3OC(=O)c1ccc(Br)cc1`: the EC50 was above 200 µM and the IC50 is above 200 µM.

For `COc1cc2c(c(OC)c1OC)-c1ccc(SC)c(=O)cc1C(NC(=O)c1ccccc1)CC2` (stereo unspecified), the EC50 is above 2 µM and the IC50 was 0.000708 µM.

Take `CC1(C)N=C(c2ccccc2)C2(c3ccccc3)N1C2(C)C` (stereo unspecified): the EC50 was above 234 µM and the IC50 turned out to be 224 µM.

For `CCCCCCCCCCC(=O)CCCCCCC(=O)O`, the result was inactive.

On to `CC1(C)CC(N(C(=O)/C=C/c2ccc([N+](=O)[O-])o2)C2CCCCC2)CC(C)(C)N1`, for which the EC50 was above 32.4 µM and the IC50 was found to be 17.4 µM.

As to `Nc1nc(Cl)cc(OCC2(CO)CCC2)n1`, the EC50 was above 200 µM and the IC50 was found to be 135 µM.

For the compound `CC[C@@]1(OC(=O)C(N)CCC(=O)O)C(=O)OCc2c1cc1n(c2=O)Cc2cc3ccccc3nc2-1` (stereo partly specified), the EC50 was above 10 µM and the IC50 stood at 0.0145 µM.

Regarding `O=c1cc(NNc2ccccc2)[nH]c(=O)[nH]1`, the EC50 was above 200 µM and the IC50 came out at 1.02 µM.

With `C=CCCCC1CCCNC1=S` (stereo unspecified), the EC50 is above 275 µM and the IC50 is above 275 µM.

Take `CC(=O)N=c1ccc2nc(N)nn(O)c-2c1`: the EC50 was above 200 µM and the IC50 was above 200 µM.

For `CCOC(=O)CCc1ccc(NC(=O)/C=C/c2ccc([N+](=O)[O-])o2)cc1`, the EC50 was above 200 µM and the IC50 turned out to be 0.372 µM.

On to `C=CCCON(C(=O)OC(C)(C)C)C(C)(C)C`, for which the EC50 is above 200 µM and the IC50 was above 200 µM.

For the compound `NC(=S)N/N=C/C(F)(F)F`, the EC50 was above 1450 µM and the IC50 was 79.4 µM.

For the compound `O=C1c2ccccc2C(=O)N1CC(O)COc1cccc2ccccc12` (stereo unspecified), the EC50 was above 200 µM and the IC50 is above 200 µM.

`CCOP(=O)(OCC)C(C(=O)OC)C(=O)C(=O)Nc1cccc([N+](=O)[O-])c1` (stereo unspecified): the EC50 was above 617 µM and the IC50 was above 617 µM.

For `Cn1c(-c2cccs2)cc(-c2ccsc2)c1-c1ccsc1`, the EC50 is above 200 µM and the IC50 is above 200 µM.

With `CN1CCN(C(=S)N(C(=O)c2ccco2)C2CCCCC2)CC1`, the EC50 is above 741 µM and the concentration for half-maximal inhibition (IC50) was found to be 631 µM.

Turning to `Cc1cc2c(C=O)[nH]nc2c(C#N)c1C`, the result was inactive.

Take `CCO/C=N/c1[nH]c(C)c(Cc2ccccc2)c1C#N`: the EC50 was above 50.1 µM and the 50% inhibitory concentration (IC50) is above 50.1 µM.

Take `Cc1c(Cc2cc(C(C)(C)C)c(O)c(C(C)(C)C)c2)c(C)c(Cc2cc(C(C)(C)C)c(O)c(C(C)(C)C)c2)c(C)c1Cc1cc(C(C)(C)C)c(O)c(C(C)(C)C)c1`: the result was inactive.

On to `N#CC1(OC2CCCCO2)Cc2ccccc2C1` (stereo unspecified), for which the EC50 is above 200 µM and the IC50 was above 200 µM.

In the case of `C=C1C(=O)OC2C3C(=C)[C@@H](OC(C)=O)CC3C(C)=CC(OC(=O)C(C)(OC(C)=O)C(C)OC(C)=O)[C@@H]12` (stereo partly specified), the EC50 is above 200 µM and the IC50 was found to be 10.2 µM.

Values taken from PubChem BioAssay AID179 (DTP/NCI, 2004).
